Patent US11724980B2, “Quinones having high capacity retention for use as electrolytes in aqueous redox flow batteries” (President and Fellows of Harvard College, priority 2018, dated 2023)

Assays:
[1] = Unbalanced compositionally-symmetric cell cycling
Description: As a direct probe of the effect of O-alkylation of anthraquinone on its chemical stability, 2,6-DBEAQ was cycled potentiostatically in a volumetrically unbalanced compositionally-symmetric cell configuration.
Potentiostatic symmetric cell cycling was performed according to a reported procedure^8 in order to assess the temporal chemical stability of DBEAQ, independent of any variations in apparent capacity as a result of changes to membrane resistance, and in a configuration where there is negligible water or reactant crossover due to the same DBEAQ concentration being used in both electrolytes. […] 5 mL of the resulting electrolyte was used as the capacity-limiting side of a volumetrically unbalanced compositionally-symmetric cell, while the remaining 10 mL was used as the non-capacity-limiting side, i.e., with twice the nominal capacity of the capacity-limiting side. […].
The cycling stability of the DPPEAQ electrolyte was also studied by a previously published symmetric cell method.^24 Although the oxidized form of DPPEAQ is readily soluble at pH 9, proton-coupled electron transfer raises the pH of the electrolyte when it is reduced. Such pH fluctuations can produce misleading results in symmetric cell testing unless the starting pH is above the cutoff point for proton-coupled electron transfer.

[2] = Full cell cycling against potassium ferro/ferricyanide posolyte; conditions: from NMR and CV detection limits, full cell cycled 11 days
Description: Full cell cycling (i.e. with a ferro/ferricyanide-based posolyte) was performed with the same flow cell hardware but with a FUMASEP® E-620(K) membrane due to its high conductivity and low permeability of DBEAQ and ferricyanide compared to other membranes. For studies at pH 14, the posolyte volume was 30 mL, and its composition, when assembled, was 0.20 M potassium ferrocyanide, 0.08 M potassium ferricyanide, and 1 M KOH. The negolyte was prepared by dissolving 0.1 M 2,6-DBEAQ in its oxidized form in 1.2 M KOH solution, resulting in 0.1 M 2,6-DBEAQ, 1.2 M K+, and 1 M OH^− electrolyte solution. For studies at pH 12, both electrolytes comprised 10 mM OH^−; the pH was checked both with a pH meter and pH paper and adjusted where necessary. For all full cell studies, the negolyte was assembled in the fully discharged state. Galvanostatic cycling was performed at ±0.1 A/cm^2 at room temperature, with voltage limits of 0.6 and 1.4 V. To obtain the polarization curves, the cell was first charged to the desired state of charge and then polarized via linear sweep voltammetry at a rate of 100 mV/s. […] Electrochemical impedance spectroscopy (EIS) was performed at SOCs between 10 and 100% at open-circuit potential with a 10 mV perturbation and with frequency ranging from 1 to 300,000 Hz. […]

For O=C([O-])CCCOc1ccc2c(c1)C(=O)c1ccc(OCCCC(=O)[O-])cc1C2=O.[K+].[K+] [2,6-DBEAQ, 4,4′-((9,10-anthraquinone-2,6-diyl)dioxy)dibutyric acid], the “temporal capacity fade rate” value ([1]; pH 14 (1 M KOH), 0.10 M (2,6-DBEAQ also 0.65 M)) was under 0.01 %/day, the “temporal capacity fade rate” value ([1]; pH 14, 0.10 and 0.65 M) was under 3.0 %/year and the “upper limit of capacity fade rate caused by decomposition and/or membrane crossover” value [2] was at most 0.01 %/day.
